By mortality is commonly meant the share of the test organisms that died. For orientation: melting point means the temperature of the solid-liquid transition.

Data set [1] concerns Plutella xylostella (Diamond Back Moth). In words: Example B5: Plutella xylostella (diamond back moth), artificial diet, 24-well. Format: in vivo. The note with it: 192 h, application rate 200 ppm, eggs, 8 days after infestation, read-out: control in at least one of the two categories (mortality or growth inhibition). The method, then:
Example B5: Plutella xylostella (Diamond Back Moth)
24-well microtiter plates with artificial diet were treated with aqueous test solutions prepared from 10′000 ppm DMSO stock solutions by pipetting. After drying, Plutella eggs were pipetted through a plastic stencil onto a gel blotting paper and the plate was closed with it. The samples were assessed for mortality and growth inhibition in comparison to untreated samples 8 days after infestation.

Data set [2] deals with Diabrotica balteata (Corn Root Worm). In words: Example B1: Diabrotica balteata (corn root worm), sprayed maize sprouts. The note with it: 96 h, application rate 200 ppm, L2 larvae, 4 days after infestation, read-out: control in at least one of the two categories (mortality or growth inhibition). Format: in vivo. The method, then: Example B1: Diabrotica balteata (Corn Root Worm)
Maize sprouts placed onto an agar layer in 24-well microtiter plates were treated with aqueous test solutions prepared from 10′000 ppm DMSO stock solutions by spraying. After drying, the plates were infested with L2 larvae (6 to 10 per well). The samples were assessed for mortality and growth inhibition in comparison to untreated samples 4 days after infestation.

For data set [3], the system named is Spodoptera littoralis (Egyptian Cotton Leaf Worm). Kind of data set: Example B9: Spodoptera littoralis (Egyptian cotton leaf worm), sprayed cotton leaf discs. It counts as in vivo. The note with it: foliar, 72 h, application rate 200 ppm, L1 larvae, 3 days after infestation, read-out: control in at least one of the three categories (mortality, anto-feedant or growth inhibition).

The subject of data set [4] is Plutella xylostella (Diamondback Moth). In words: Example B13: Plutella xylostella (diamondback moth), artificial diet, 96-well. Format: in vivo. The note with it: 216 h, application rate 500 ppm, eggs/L1 larvae, 9 days after infestation. As for the experimental part:
Example B13: Plutella xylostella (Diamondback Moth)
96-well microtiter plates containing artificial diet were treated with aqueous test solutions, prepared from 10′000 ppm DMSO stock solutions, by a liquid handling robot. After drying, eggs (˜30 per well) were infested onto a netted lid which was suspended above the diet. The eggs hatch and L1 larvae move down to the diet. The samples were assessed for mortality 9 days after infestation.

Data set [5] concerns Chilo suppressalis (Striped Rice Stemborer). In words: Example B4: Chilo suppressalis (striped rice stemborer), artificial diet. Format: in vivo. The note with it: 144 h, application rate 200 ppm, L2 larvae, 6 days after infestation, read-out: control in at least one of the three categories (mortality, anti-feedant or growth inhibition). As for the experimental part:
Example B4: Chilo suppressalis (Striped Rice Stemborer)
24-well microtiter plates with artificial diet were treated with aqueous test solutions prepared from 10′000 ppm DMSO stock solutions by pipetting. After drying, the plates were infested with L2 larvae (6-8 per well). The samples were assessed for mortality, anti-feeding effect, and growth inhibition in comparison to untreated samples 6 days after infestation. Control of Chilo suppressalis by a test sample is given when at least one of the categories mortality, anti-feedant effect, and growth inhibition is higher than the untreated sample.

The test system of data set [6] is Myzus persicae (Green Peach Aphid). In words: Example B12: Myzus persicae (green peach aphid), 96-well sucrose solution. The note with it: 120 h, application rate 50 ppm, 5 days after infestation. Format: in vivo. The text has this: Example B12: Myzus persicae (Green Peach Aphid)
Test compounds prepared from 10′000 ppm DMSO stock solutions were applied by a liquid handling robot into 96-well microtiter plates and mixed with a sucrose solution. Parafilm was stretched over the 96-well microtiter plate and a plastic stencil with 96 holes was placed onto the plate. Aphids were sieved into the wells directly onto the Parafilm. The infested plates were closed with a gel blotting card and a second plastic stencil and then turned upside down. The samples were assessed for mortality 5 days after infestation.

The test system of data set [7] is Euschistus heros (Neotropical Brown Stink Bug). In words: Example B2: Euschistus heros (neotropical brown stink bug), sprayed soybean leaves. Format: in vivo. The note with it: 120 h, application rate 200 ppm, N2 nymphs, 5 days after infestation, read-out: control in at least one of the two categories (mortality or growth inhibition). The method, then:
Example B2: Euschistus heros (Neotropical Brown Stink Bug)
Soybean leaves on agar in 24-well microtiter plates were sprayed with aqueous test solutions prepared from 10′000 ppm DMSO stock solutions. After drying the leaves were infested with N2 nymphs. The samples were assessed for mortality and growth inhibition in comparison to untreated samples 5 days after infestation.

For `CC(NC(=O)c1cc(C2CC2(F)F)cc(C(F)(F)F)c1)c1nc(Br)nn1-c1ccc(C#N)cn1` (stereo not drawn) [Compound P6, N-[1-[5-bromo-2-(5-cyano-2-pyridyl)-1,2,4-triazol-3-yl]ethyl]-3-(2,2-difluorocyclopropyl)-5-(trifluoromethyl)benzamide], the percent control (mortality or growth inhibition) at 200 ppm in data set [1] and in data set [2] was at least 80% in each case. In addition, the percent control (mortality, anti-feedant or growth inhibition) at 200 ppm in data set [3] and in data set [5] was at least 80% in each case. In data set [4], this molecule showed a mortality at 500 ppm of at least 80%.
Turning to `CC(NC(=O)c1cc(C2CC2(F)F)cc(C(F)(F)F)c1)c1nc(Br)nn1-c1ccc(OC(F)F)cn1` (stereo not drawn) [Compound P7, N-[1-[5-bromo-2-[5-(difluoromethoxy)-2-pyridyl]-1,2,4-triazol-3-yl]ethyl]-3-(2,2-difluorocyclopropyl)-5-(trifluoromethyl)benzamide], the percent control (mortality or growth inhibition) at 200 ppm in data set [1] and in data set [2] was at least 80% throughout. Also, the mortality at 50 ppm in data set [6] is at least 80%. Moreover, the percent control (mortality, anti-feedant or growth inhibition) at 200 ppm in data set [3] and in data set [5] was at least 80% in each case. This molecule had a mortality at 500 ppm in data set [4] of at least 80%.
Consider `CC(NC(=O)c1cc(C2CC2(F)F)cc(C(F)(F)F)c1)c1nc(Br)nn1-c1ncc(OCC(F)F)cn1` (stereo not drawn) [Compound P8, N-[1-[5-bromo-2-[5-(2,2-difluoroethoxy)pyrimidin-2-yl]-1,2,4-triazol-3-yl]ethyl]-3-(2,2-difluorocyclopropyl)-5-(trifluoromethyl)benzamide], for which the percent control (mortality or growth inhibition) at 200 ppm in data set [1] and in data set [2] was at least 80% throughout. Also, the percent control (mortality, anti-feedant or growth inhibition) at 200 ppm in data set [3] and in data set [5] was at least 80% in each case. In data set [4], this molecule gave a mortality at 500 ppm of at least 80%.
Consider `CC(NC(=O)c1cc(C2CC2(F)F)cc(C(F)(F)F)c1)c1nc(Br)nn1-c1ncc(OCC(F)(F)F)cn1` (stereo not drawn) [Compound P11, N-[1-[5-bromo-2-[5-(2,2,2-trifluoroethoxy)pyrimidin-2-yl]-1,2,4-triazol-3-yl]ethyl]-3-(2,2-difluorocyclopropyl)-5-(trifluoromethyl)benzamide], for which the percent control (mortality or growth inhibition) at 200 ppm in data set [7], in data set [1] and in data set [2] was at least 80% each time. Also, the percent control (mortality, anti-feedant or growth inhibition) at 200 ppm in data set [3] and in data set [5] was at least 80% each time. Moreover, the mortality at 500 ppm in data set [4] was at least 80%.
In the case of `CC(NC(=O)c1cc(C2CC2(F)F)cc(C(F)(F)F)c1)c1nc(Br)nn1-c1ncc(OC(F)F)cn1` (stereo not drawn) [Compound P12, N-[1-[5-bromo-2-[5-(difluoromethoxy)pyrimidin-2-yl]-1,2,4-triazol-3-yl]ethyl]-3-(2,2-difluorocyclopropyl)-5-(trifluoromethyl)benzamide], the percent control (mortality or growth inhibition) at 200 ppm in data set [1] and in data set [2] was at least 80% each time. Further, the percent control (mortality, anti-feedant or growth inhibition) at 200 ppm in data set [3] and in data set [5] was at least 80% each time. Moreover, the mortality at 500 ppm in data set [4] is at least 80%.
As for `CC(NC(=O)c1cc(C2CC2)cc(C(F)(F)F)c1)c1nc(Br)nn1-c1ncc(OCC(F)F)cn1` (stereo not drawn) [Compound P18, N-[1-[5-bromo-2-[5-(2,2-difluoroethoxy)pyrimidin-2-yl]-1,2,4-triazol-3-yl]ethyl]-3-cyclopropyl-5-(trifluoromethyl)benzamide], the percent control (mortality or growth inhibition) at 200 ppm in data set [1] and in data set [2] was at least 80% in each case. Besides, the percent control (mortality, anti-feedant or growth inhibition) at 200 ppm in data set [3] and in data set [5] was at least 80% throughout. In data set [4], the mortality at 500 ppm is at least 80%.
With `CC(NC(=O)c1cc(C(F)(F)F)nc(C2(C#N)CC2)c1)c1nc(Br)nn1-c1ccc(OC(F)F)cn1` (stereo not drawn) [Compound P30, N-[1-[5-bromo-2-[5-(difluoromethoxy)-2-pyridyl]-1,2,4-triazol-3-yl]ethyl]-2-(1-cyanocyclopropyl)-6-(trifluoromethyl)pyridine-4-carboxamide], the melting point lay within 152 to 154 °C.
As for `CC(NC(=O)c1cc(C(F)(F)F)cc(C(F)(F)C2CC2)c1)c1nc(Br)nn1-c1ccc(OCC(F)F)cn1` (stereo not drawn) [Compound P31, N-[1-[5-bromo-2-[5-(2,2-difluoroethoxy)-2-pyridyl]-1,2,4-triazol-3-yl]ethyl]-3-[cyclopropyl(difluoro)methyl]-5-(trifluoromethyl)benzamide], the melting point lay in the range of 140 to 142 °C.
Same read-out and setting: the value for `CC(NC(=O)c1cc(C(F)(F)F)nc(C2(C#N)CC2)c1)c1nc(Br)nn1-c1ccc(OCC(F)F)cn1` (stereo not drawn) [Compound P32, N-[1-[5-bromo-2-[5-(2,2-difluoroethoxy)-2-pyridyl]-1,2,4-triazol-3-yl]ethyl]-2-(1-cyanocyclopropyl)-6-(trifluoromethyl)pyridine-4-carboxamide] was 147 to 149 °C.
Still for that read-out and setting: in the case of `CC(NC(=O)c1cc(C(F)(F)F)nc(C2(C#N)CC2)c1)c1nc(Br)nn1-c1ccc(OCC(F)(F)F)cn1` (stereo not drawn) [Compound P33, N-[1-[5-bromo-2-[5-(2,2,2-trifluoroethoxy)-2-pyridyl]-1,2,4-triazol-3-yl]ethyl]-2-(1-cyanocyclopropyl)-6-(trifluoromethyl)pyridine-4-carboxamide] it was 82 to 84 °C; in that of `CC(NC(=O)c1cc(C(F)(F)F)nc(C2(C#N)CC2)c1)c1nc(Br)nn1-c1ncc(OCC(F)(F)F)cn1` (stereo not drawn) [Compound P34, N-[1-[5-bromo-2-[5-(2,2,2-trifluoroethoxy)pyrimidin-2-yl]-1,2,4-triazol-3-yl]ethyl]-2-(1-cyanocyclopropyl)-6-(trifluoromethyl)pyridine-4-carboxamide], 157 to 159 °C.
On to `CC(NC(=O)c1cc(C(F)(F)F)cc(C(C)(C)C#N)c1)c1nc(Br)nn1-c1ccc(C#N)cn1` (stereo not drawn) [Compound P36, N-[1-[5-bromo-2-(5-cyano-2-pyridyl)-1,2,4-triazol-3-yl]ethyl]-3-(1-cyano-1-methyl-ethyl)-5-(trifluoromethyl)benzamide], for which the percent control (mortality or growth inhibition) at 200 ppm in data set [7], in data set [1] and in data set [2] was at least 80% in each case. Also, the percent control (mortality, anti-feedant or growth inhibition) at 200 ppm in data set [3] and in data set [5] was at least 80% in each case. Besides, the mortality at 500 ppm in data set [4] is at least 80%.
As to `CC(NC(=O)c1cc(C(F)(F)F)cc(C(C)(C)C#N)c1)c1nc(Br)nn1-c1ccc(OC(F)F)cn1` (stereo not drawn) [Compound P37, N-[1-[5-bromo-2-[5-(difluoromethoxy)-2-pyridyl]-1,2,4-triazol-3-yl]ethyl]-3-(1-cyano-1-methyl-ethyl)-5-(trifluoromethyl)benzamide], the percent control (mortality or growth inhibition) at 200 ppm in data set [7], in data set [1] and in data set [2] was at least 80% throughout. In addition, the percent control (mortality, anti-feedant or growth inhibition) at 200 ppm in data set [3] and in data set [5] was at least 80% in each case.

The values are drawn from US20220167618A1, “PESTICIDALLY ACTIVE AZOLE-AMIDE COMPOUNDS” (SYNGENTA CROP PROTECTION AG, priority 2019, published 2022).
